ChEMBL document CHEMBL1649149, “Sitafloxacin and garenoxacin may overcome the antibiotic resistance of Helicobacter pylori with gyrA mutation” (2009)
Converted amounts (≈) assume the structure as drawn.

How the values were obtained:
Format in all cases: functional
Helicobacter pylori [1] = test: Antibacterial activity against Helicobacter pylori infected in human assessed as bacterial eradication rate at 400 mg, po QD for 7 days
Helicobacter pylori [2] = test: Antibacterial activity against Helicobacter pylori infected in human assessed as bacterial eradication rate at 1 g, po BID for 7 days
Helicobacter pylori [3] = test: Antibacterial activity against Helicobacter pylori infected in human assessed as bacterial eradication rate at 20 mg, po BID for 7 days
Helicobacter pylori [4] = test: Antibacterial activity against Helicobacter pylori harboring gyrA mutant gene infected in human assessed as bacterial eradication rate after 7 days
Helicobacter pylori [5] = test: Antibacterial activity against Helicobacter pylori harboring gyrA mutant gene by agar dilution method
Helicobacter pylori [6] = test: Antibacterial activity against Helicobacter pylori harboring gyrA mutant gene
Helicobacter pylori [7] = test: Antibacterial activity against Helicobacter pylori harboring gyrA mutant gene assessed as resistant isolates
Helicobacter pylori [8] = test: Antibacterial activity against Helicobacter pylori infected in human assessed as bacterial eradication rate at 20 mg, po BID for 10 days by 13C-urea breath test
Helicobacter pylori [9] = test: Antibacterial activity against GAT-susceptible Helicobacter pylori infected in human assessed as bacterial eradication rate for 7 days
Helicobacter pylori [10] = test: Antibacterial activity against Helicobacter pylori

SMILES	Activity (Helicobacter pylori [1]) [%]	Activity (Helicobacter pylori [2]) [%]	Activity (Helicobacter pylori [3]) [%]	Activity (Helicobacter pylori [4]) [%]	MIC50 (Helicobacter pylori [5]) [mg/L]	MIC90 (Helicobacter pylori [5]) [mg/L]	other results
CC1(C)S[C@@H]2[C@H](NC(=O)[C@H](N)c3ccc(O)cc3)C(=O)N2[C@H]1C(=O)O [AMOXICILLIN]	84.4	84.4	84.4	33.3	–	–	–
C[C@H]1NCc2cc(-c3ccc4c(=O)c(C(=O)O)cn(C5CC5)c4c3OC(F)F)ccc21 [GARENOXACIN]	–	–	–	–	0.5 (≈ 1.17 µM)	1 (≈ 2.35 µM)	–
COc1c(N2CCNC(C)C2)c(F)cc2c(=O)c(C(=O)O)cn(C3CC3)c12 (configuration not stated) [GATIFLOXACIN]	84.4	84.4	84.4	33.3	2 (≈ 5.33 µM)	4 (≈ 10.7 µM)	MIC (Helicobacter pylori [6]): ≥ 1 mg/L; Activity (Helicobacter pylori [7]): 47.9%
COc1ccc2[nH]c([S+]([O-])Cc3ncc(C)c(OC)c3C)nc2c1 (configuration not stated) [OMEPRAZOLE]	–	–	–	–	–	–	Activity (Helicobacter pylori [8]): 66%
COCCCOc1ccnc(C[S+]([O-])c2nc3ccccc3[nH]2)c1C (configuration not stated) [RABEPRAZOLE]	84.4	84.4	84.4	–	–	–	Activity (Helicobacter pylori [9]): 100%
N[C@@H]1CN(c2c(F)cc3c(=O)c(C(=O)O)cn([C@@H]4C[C@@H]4F)c3c2Cl)CC12CC2 [SITAFLOXACIN ANHYDROUS]	–	–	–	–	0.12 (≈ 0.293 µM)	0.25 (≈ 0.61 µM)	MIC90 (Helicobacter pylori [10]): < 0.008 mg/L
